According to US12325697B2 (Nimbus Clio, Inc., priority 2021, dated 2025):

Target: Recombinant human Cbl-b (aa 36-427) (Homo sapiens (Human), UniProt Q13191)
Assay: Cbl-b Biochemical Assay (TR-FRET)
Conditions: read-out: TR-FRET hCbl-b IC50
Experimental: Recombinant human Cbl-b (aa 36-427) was expressed in E. coli, purified and biotinylated in vitro. The protein was diluted to 12 nM in freshly prepared assay buffer consisting of 50 mM HEPES, pH 7.0, 100 mM NaCl, 5 mM MgCl2, 0.01% Triton-X 100, 0.01% BSA and 1 mM DTT. Recombinant human Src (aa 254-536)-[…]-Zap-70 (aa 281-297) fusion protein was expressed in E. coli and purified. Protein was diluted in assay buffer to 2-5 nM and supplemented with ATP to 1 mM. Fluorescein-BODIPY labeled UBE[…]([…])-Ub was prepared by conjugating ubiquitin (Ub) labeled at its N-terminus with Fluorescein-BODIPY maleimide (ThermoFisher Catalog no B10250) to E. coli expressed and purified UBE[…]([…]) [see Dou et al Nature Structural and Molecular Biology 8: 982-987, 2013]. Recombinant human UBE2D2([…]) was expressed in E. coli, purified and ubiquitinated and Bodipy labelled in vitro. Protein was diluted to 200 nM in assay buffer without MgCl2 (or Cisbio PPI buffer). Streptavidin-Terbium was added to 2 nM and EDTA to 10 mM, to provide a binding assay mix. Compounds were dissolved in DMSO and diluted to prepare a ten-point dilution series. 100 nl of each compound concentration was dispensed in duplicate in a 384 well black assay plate using acoustic dispensing. Wells for maximum signal controls received 100 nl of DMSO only and wells for minimum signal controls received 100 nl of a reference inhibitor compound at a final assay concentration of […] to produce 100% inhibition. 5 μl of diluted Cbl-b enzyme was added to all wells of the assay plate and incubated at RT for 30-60 min. The enzyme assay was initiated by addition of 5 μl of Src-Zap/ATP mix to all wells, and the plate incubated at RT for 60 min. The enzyme reaction was terminated and the binding reaction was initiated by adding 10 μl of binding assay mix to all wells and incubating the plate at RT for 60 min prior to assay read. Final assay conditions consisted of 6 nM Cbl-b, 1-2.5 nM Src-Zap70, 0.5 mM ATP, 1% (v/v) DMSO (enzyme reaction) and 100 nM UBE2D2([…])-Ub-FL-BODIPY, 5 mM EDTA, 1 nM Streptavidin-Tb (binding reaction). The HTRF assay signal was measured at 520 nm on an Envision plate reader, with reference signal at 485 or 620 nm. Data was normalized using maximum and minimum assay controls: % Inhibition=100-(100*((maximum control)-unknown)/(maximum control-minimum control)). A 4-parameter dose-response equation was used to fit the normalized dose-response data and derive an IC50 for test compounds.

Recombinant human Cbl-b (aa 36-427), sequence (Q13191 36-427): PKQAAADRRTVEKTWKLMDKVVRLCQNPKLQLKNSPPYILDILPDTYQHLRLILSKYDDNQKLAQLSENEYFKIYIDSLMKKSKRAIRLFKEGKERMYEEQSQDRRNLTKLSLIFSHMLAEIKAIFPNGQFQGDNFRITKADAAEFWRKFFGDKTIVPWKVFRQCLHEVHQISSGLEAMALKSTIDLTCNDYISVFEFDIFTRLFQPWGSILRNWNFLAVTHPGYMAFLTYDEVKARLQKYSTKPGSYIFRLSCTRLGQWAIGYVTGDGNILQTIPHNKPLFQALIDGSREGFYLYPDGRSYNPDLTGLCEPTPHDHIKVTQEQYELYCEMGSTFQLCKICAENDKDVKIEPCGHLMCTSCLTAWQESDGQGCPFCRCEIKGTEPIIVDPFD

SMILES | IC50 [µM]
Cn1cnnc1-c1cc(C(N)=O)ccc1-c1cccc(N2Cc3c(cccc3C(F)(F)F)C2=O)c1 [ACD-1, 2-(4-Methyl-4H-1,2,4-triazol-3-yl)-3′-(1-oxo-4-(trifluoromethyl)isoindolin-2-yl)-[1,1′-biphenyl]-4-carboxamide] | 1 to 10
CCNc1cc(-c2c(-c3nncn3C)cnn2C)cc(N2Cc3c(cc(CN4CCC[C@@H](C)C4)cc3C(F)(F)F)C2=O)n1 [ACE-1, (R)-2-(6-(Ethylamino)-4-(1-methyl-4-(4-methyl-4H-1,2,4-triazol-3-yl)-1H-pyrazol-5-yl)pyridin-2-yl)-6-((3-methylpiperidin-1-yl)methyl)-4-(trifluoromethyl) isoindolin-1-one] | ≤ 0.2
CCNc1cc(-c2c(-c3nncn3C)cnn2C)cc(N2Cc3c(cc(CN4CCC[C@H](C)C4)cc3C(F)(F)F)C2=O)n1 [ACF-1, (S)-2-(6-(Ethylamino)-4-(1-methyl-4-(4-methyl-4H-1,2,4-triazol-3-yl)-1H-pyrazol-5-yl)pyridin-2-yl)-6-((3-methylpiperidin-1-yl)methyl)-4-(trifluoromethyl)isoindolin-1-one] | ≤ 0.2
CCNc1cc(-c2c(-c3nncn3C)cnn2C)cc(N2Cc3c(cc(CN)cc3C(F)(F)F)C2=O)n1 [ACG-3, 6-(Aminomethyl)-2-(6-(ethylamino)-4-(1-methyl-4-(4-methyl-4H-1,2,4-triazol-3-yl)-1H-pyrazol-5-yl)pyridin-2-yl)-4-(trifluoromethyl)isoindolin-1-one] | ≤ 0.2
CCNc1cc(-c2c(-c3nncn3C)cnn2C)cc(N2Cc3c(cc(CO)cc3C(F)(F)F)C2=O)n1 [ACH-1, 2-(6-(Ethylamino)-4-(1-methyl-4-(4-methyl-4H-1,2,4-triazol-3-yl)-1H-pyrazol-5-yl)pyridin-2-yl)-6-(hydroxymethyl)-4-(trifluoromethyl)isoindolin-1-one] | ≤ 0.2
CCNc1cc(-c2c(-c3nncn3C)cnn2C)cc(N2Cc3c(cc(CNCCO)cc3C(F)(F)F)C2=O)n1 [ACI-1, 2-(6-(Ethylamino)-4-(1-methyl-4-(4-methyl-4H-1,2,4-triazol-3-yl)-1H-pyrazol-5-yl)pyridin-2-yl)-6-(((2-hydroxyethyl)amino)methyl)-4-(trifluoromethyl)isoindolin-1-one] | ≤ 0.2
COC(=O)C1(c2cc(-c3ccccc3-c3nncn3C)cc(N3Cc4c(cccc4C(F)(F)F)C3=O)n2)CC1 [ACJ-6, Methyl 1-(4-(2-(4-methyl-4H-1,2,4-triazol-3-yl)phenyl)-6-(1-oxo-4-(trifluoromethyl)isoindolin-2-yl)pyridin-2-yl) cyclopropane-1-carboxylate] | 10 to 50
Cn1cnnc1-c1ccccc1-c1cc(C2CC2)nc(N2Cc3c(cc(CO)cc3C(F)(F)F)C2=O)c1 [ACK-3, 2-(6-Cyclopropyl-4-(2-(4-methyl-4H-1,2,4-triazol-3-yl)phenyl)pyridin-2-yl)-6-(hydroxymethyl)-4-(trifluoromethyl)isoindolin-1-one] | ≤ 0.2
Cn1cnnc1-c1ccccc1-c1cc(C2CC2)nc(N2Cc3c(cc(CN4CCC5(CC5)C4)cc3C(F)(F)F)C2=O)c1 [ACL-1, 6-((5-Azaspiro [2.4]heptan-5-yl)methyl)-2-(6-cyclopropyl-4-(2-(4-methyl-4H-1,2,4-triazol-3-yl)phenyl)pyridin-2-yl)-4-(trifluoromethyl)isoindolin-1-one] | ≤ 0.2
CCNc1cc(-c2ccc(F)cc2-c2nncn2C)cc(N2Cc3c(cccc3C(F)(F)F)C2=O)n1 [ACM-8, 2-(6-(Ethylamino)-4-(4-fluoro-2-(4-methyl-4H-1,2,4-triazol-3-yl)phenyl)pyridin-2-yl)-4-(trifluoromethyl)isoindolin-1-one] | ≤ 0.2
CCNc1cc(-c2c(-c3nncn3C)cnn2C)cc(N2Cc3c(cc(OCCN4CCCC4)cc3C(F)(F)F)C2=O)n1 [ACN-5, 2-(6-(Ethylamino)-4-(1-methyl-4-(4-methyl-4H-1,2,4-triazol-3-yl)-1H-pyrazol-5-yl)pyridin-2-yl)-6-(2-(pyrrolidin-1-yl)ethoxy)-4-(trifluoromethyl)isoindolin-1-one] | ≤ 0.2
CCNc1cc(-c2c(-c3nncn3C)cnn2C)cc(N2Cc3c(cccc3C(F)(F)F)C2=O)n1 [ACO-1, 2-(6-(Ethylamino)-4-(1-methyl-4-(4-methyl-4H-1,2,4-triazol-3-yl)-1H-pyrazol-5-yl)pyridin-2-yl)-4-(trifluoromethyl)isoindolin-1-one] | ≤ 0.2
CCNc1cc(-c2c(-c3nncn3C)cnn2C)cc(N2Cc3c(cc(O)cc3C(F)(F)F)C2=O)n1 [ACQ-7, 2-(6-(Ethylamino)-4-(1-methyl-4-(4-methyl-4H-1,2,4-triazol-3-yl)-1H-pyrazol-5-yl)pyridin-2-yl)-6-hydroxy-4-(trifluoromethyl)isoindolin-1-one] | ≤ 0.2
CCNc1cc(-c2ccc(Cl)cc2-c2nncn2C)cc(N2Cc3c(cccc3C(F)(F)F)C2=O)n1 [ACR-7, 2-(4-(4-Chloro-2-(4-methyl-4H-1,2,4-triazol-3-yl)phenyl)-6-(ethylamino)pyridin-2-yl)-4-(trifluoromethyl)isoindolin-1-one] | ≤ 0.2
CCNc1cc(-c2c(-c3nncn3C)cnn2C)cc(N2Cc3c(cc(C(=O)N4CC[C@H](O)C4)cc3C(F)(F)F)C2=O)n1 [ACS-4, (S)-2-(6-(Ethylamino)-4-(1-methyl-4-(4-methyl-4H-1,2,4-triazol-3-yl)-1H-pyrazol-5-yl)pyridin-2-yl)-6-(3-hydroxypyrrolidine-1-carbonyl)-4-(trifluoromethyl)isoindolin-1-one] | ≤ 0.2
CCNc1cc(-c2c(-c3nncn3C)cnn2C)cc(N2Cc3c(cc(C(=O)N4CC[C@@H](O)C4)cc3C(F)(F)F)C2=O)n1 [ACT-2, (R)-2-(6-(Ethylamino)-4-(1-methyl-4-(4-methyl-4H-1,2,4-triazol-3-yl)-1H-pyrazol-5-yl)pyridin-2-yl)-6-(3-hydroxypyrrolidine-1-carbonyl)-4-(trifluoromethyl)isoindolin-1-one] | ≤ 0.2
Cn1cnnc1-c1ccccc1-c1cc(N2Cc3c(cccc3C(F)(F)F)C2=O)nc(C2(CO)CC2)c1 [ACU-2, 2-(6-(1-(Hydroxymethyl)cyclopropyl)-4-(2-(4-methyl-4H-1,2,4-triazol-3-yl)phenyl)pyridin-2-yl)-4-(trifluoromethyl)isoindolin-1-one] | ≤ 0.2
CCNc1cc(-c2c(-c3nncn3C)cnn2C)cc(N2Cc3c(cc(OC4CN(C)C4)cc3C(F)(F)F)C2=O)n1 [ACV-2, 2-(6-(Ethylamino)-4-(1-methyl-4-(4-methyl-4H-1,2,4-triazol-3-yl)-1H-pyrazol-5-yl)pyridin-2-yl)-6-((1-methylazetidin-3-yl)oxy)-4-(trifluoromethyl)isoindolin-1-one] | ≤ 0.2
CCNc1cc(-c2c(-c3nncn3C)cnn2C)cc(N2Cc3c(cc(COC(C)C)cc3C(F)(F)F)C2=O)n1 [ACW-1, 2-(6-(Ethylamino)-4-(1-methyl-4-(4-methyl-4H-1,2,4-triazol-3-yl)-1H-pyrazol-5-yl)pyridin-2-yl)-6-(isopropoxymethyl)-4-(trifluoromethyl)isoindolin-1-one] | ≤ 0.2
CCNc1cc(-c2ccccc2-c2nncn2C)cc(N2Cc3c(cc(CO)cc3C(F)(F)F)C2=O)n1 [AD-3, 2-(6-(Ethylamino)-4-(2-(4-methyl-4H-1,2,4-triazol-3-yl)phenyl)pyridin-2-yl)-6-(hydroxymethyl)-4-(trifluoromethyl)isoindolin-1-one] | ≤ 0.2
CN(C)c1cc(-c2ccccc2-c2nncn2C)cc(N2Cc3c(cc(CO)cc3C(F)(F)F)C2=O)n1 [AD-4, 2-(6-(dimethylamino)-4-(2-(4-methyl-4H-1,2,4-triazol-3-yl)phenyl)pyridin-2-yl)-6-(hydroxymethyl)-4-(trifluoromethyl)isoindolin-1-one] | 0.2 to 1
CCNc1cc(-c2ccccc2-c2nncn2C)cc(N2Cc3c(cc(CN4CCC[C@@H](C)C4)cc3C(F)(F)F)C2=O)n1 [AE-2, (R)-2-(6-(Ethylamino)-4-(2-(4-methyl-4H-1,2,4-triazol-3-yl)phenyl)pyridin-2-yl)-6-((3-methylpiperidin-1-yl)methyl)-4-(trifluoromethyl)isoindolin-1-one] | ≤ 0.2
CCNc1cc(-c2ccccc2-c2nncn2C)cc(N2Cc3c(cc(CN4CCC[C@H](C)C4)cc3C(F)(F)F)C2=O)n1 [AF-1, (S)-2-(6-(Ethylamino)-4-(2-(4-methyl-4H-1,2,4-triazol-3-yl)phenyl)pyridine-2-yl)6-((3-methylpiperidin-1-yl)methyl)-4-(trifluoromethyl)isoindolin-1-one] | ≤ 0.2
